Measurements reported in patent publication US10577361B2, “Dopamine D3 receptor antagonists having a morpholine moiety” (Indivior UK Limited, priority 2015, dated 2020).

Key:
[1] = target: human dopamine type 3 receptor (hD3) (Homo sapiens (Human), UniProt P35462); assay: [3H]-Spiperone binding assay at hD3 recombinant receptor (CHO-hD3 membranes); details: pKi only estimated to be accurate to about ±0.3-0.5
Experimental: [^3H]-Spiperone Binding Assay at hD3 and hD4 recombinant receptors CHO cells transiently transfected with human dopamine type 3 or 4 receptors (CHO-hD3 or CHO-hD4, respectively), were re-suspended in 20 mM HEPES, 2 mM EDTA (pH 7.4), homogenised and centrifuged at 40,000 g (20 min, 4° C.). After re-suspension, homogenization and centrifugation as above, the final pellet was re-suspended in 20 mM HEPES, 100 mM NaCl, 10 mM MgCl2, 1 mM EDTA (pH 7.4) and aliquots were kept at −80° C. [^3H]-Spiperone Binding experiments were performed in 96 deep-well polypropylene plates in 50 mM Tris/HCl, 120 mM NaCl, 5 mM KCl, 5 mM MgCl2 (pH 7.4). Compounds of invention were serially diluted in DMSO at 100 fold final concentrations in the assay (1% DMSO final in the assay). Displacement was performed in the presence of 0.3 nM [^3H]-Spiperone. The reaction was initiated by the addition of membrane suspension (4 μg and 12 μg of protein for CHO-hD3- and CHO-hD4 membranes, respectively) and lasted for 90 or 100 min (for hD3 or hD4 membranes, respectively) at 23° C. in a final volume of 500 μl. Non specific binding (NSB) was determined in the presence of 1 μM Spiperone. The binding reaction was stopped by rapid filtration through GF/B filterplates pre-soaked in 0.5% polyetylenimmine (PEI) using a Packard cell harvester. After washing with ice-cold 0.9% NaCl, the plate was left to dry before the addition of Microscint 20 ([…], PerkinElmer). Radioactivity was counted with a TopCount (PerkinElmer). Data were analysed by non-linear regression analysis using GraphPad Prism 5.0 (GraphPad Software). Saturation binding experiments were performed similar to the competition binding experiments using a radioligand concentrations ranging from 0.015 to 4.0 nM. […] Characterization of the human dopamine D3 receptor expressed in transfected cell lines.

[2] = target: human dopamine receptor type 2, long variant (hD2L) (Homo sapiens (Human), UniProt P14416); assay: [3H]-Spiperone binding assay at hD2 recombinant receptor (CHO-Gα16-hD2L membranes)
Experimental: [^3H]-Spiperone Binding Assay at hD2 Recombinant Receptor CHO cells stably expressing human dopamine receptor type 2, long variant (hD2L), coupled to Gα16 protein (CHO-Gα16-hD2L) were re-suspended in 20 mM HEPES, 2 mM EDTA (pH 7.4), homogenised and centrifuged at 40,000 g (20 min, 4° C.). After re-suspension, homogenization and centrifugation as above, the final pellet was re-suspended in 20 mM HEPES, 100 mM NaCl, 10 mM MgCl2, 1 mM EDTA (pH 7.4) and aliquots were kept at −80° C. [^3H]-Spiperone Binding experiments were performed in 96 deep-well polypropylene plates in 50 mM Tris/HCl, 120 mM NaCl, 5 mM KCl, 5 mM MgCl2 (pH 7.4). […] Displacement was performed in the presence of 0.08 nM [^3H]-Spiperone. The reaction was initiated by the addition of membrane suspension (2 μg of protein for CHO-hD2 membranes) and lasted for 120 min at 23° C. in a final volume of 1000 μl. Non specific binding (NSB) was determined in the presence of 0.1 μM Spiperone. The binding reaction was stopped by rapid filtration through GF/B filterplates pre-soaked in 0.5% polyetylenimmine (PEI) using a Packard cell harvester. After washing with ice-cold 0.9% NaCl, the plate was left to dry before the addition of Microscint 20 (50 μl/well, PerkinElmer). Radioactivity was counted with a TopCount (PerkinElmer). […] Saturation binding experiments were performed similar to the competition binding experiments using a radioligand concentrations ranging from 0.011 to 3.0 nM. […] Is Clozapine selective for the dopamine D4 receptor? […] Real-time analysis of dopamine: antagonist interactions at recombinant human D2long receptor upon modulation of its activation state. Brit. J.

Chain of human dopamine type 3 receptor (hD3) (P35462 whole entry): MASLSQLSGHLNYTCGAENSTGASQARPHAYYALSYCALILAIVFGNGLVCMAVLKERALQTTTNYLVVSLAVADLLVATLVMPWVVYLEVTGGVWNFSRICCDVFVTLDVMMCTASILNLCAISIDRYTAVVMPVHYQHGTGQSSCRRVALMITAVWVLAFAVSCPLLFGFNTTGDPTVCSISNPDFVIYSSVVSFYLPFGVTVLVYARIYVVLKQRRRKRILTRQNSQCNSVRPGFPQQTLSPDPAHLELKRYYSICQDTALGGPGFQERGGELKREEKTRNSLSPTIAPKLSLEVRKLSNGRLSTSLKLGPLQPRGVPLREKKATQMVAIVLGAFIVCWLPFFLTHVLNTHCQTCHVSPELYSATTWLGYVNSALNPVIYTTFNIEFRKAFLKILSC

Row | Structure (SMILES) | D3 p Ki [1] | D2 p Ki [2]
1 | Cc1ccc(C2CN(CCCSc3nnc(-c4ocnc4C)n3C)CCO2)cc1 (stereo not shown) [Example 36, 4-(3-{[4-methyl-5-(4-methyl-1,3-oxazol-5-yl)-4H-1,2,4-triazol-3-yl]sulfanyl}propyl)-2-(4-methylphenyl)morpholine] | 6.17 | –
2 | Cn1c(SCCCN2CCOC(c3ccc(C(F)(F)F)cc3)C2)nnc1-c1ccc(C(N)=O)nc1 (stereo not shown) [Example 20, 5-{4-methyl-5-[(3-{2-[4-(trifluoromethyl)phenyl]morpholin-4-yl}propyl)sulfanyl]-4H-1,2,4-triazol-3-yl}pyridine-2-carboxamide] | 7.45 | –
3 | Cn1c(SCCCN2CCOC(c3ccc(C(F)(F)F)cc3)C2)nnc1-c1nccs1 (stereo not shown) [Example 26, 4-(3-{[4-methyl-5-(1,3-thiazol-2-yl)-4H-1,2,4-triazol-3-yl]sulfanyl}propyl)-2-[4-(trifluoromethyl)phenyl]morpholine] | 6.55 | 5.14
4 | Cn1c(SCCCN2CCOC(c3ccc(C(F)(F)F)cc3)C2)nnc1-c1ccc(-c2ncco2)cc1 (stereo not shown) [Example 14, 4-[3-({4-methyl-5-[4-(1,3-oxazol-2-yl)phenyl]-4H-1,2,4-triazol-3-yl}sulfanyl)propyl]-2-[4-(trifluoromethyl)phenyl]morpholine] | 8.31 | 5.83
5 | Cn1c(SCCCN2CCOC(c3ccc(C(F)(F)F)cc3)C2)nnc1-c1cnccn1 (stereo not shown) [Example 19, 4-(3-{[4-methyl-5-(pyrazin-2-yl)-4H-1,2,4-triazol-3-yl]sulfanyl}propyl)-2-[4-(trifluoromethyl)phenyl]morpholine] | 6.76 | –
6 | CC(=O)c1ccc(-c2nnc(SCCCN3CCOC(c4ccc(C(F)(F)F)cc4)C3)n2C)cc1 (stereo not shown) [Example 32, 1-(4-{4-methyl-5-[(3-{2-[4-(trifluoromethyl)phenyl]morpholine-4-yl}propyl)sulfanyl]-4H-1,2,4-triazol-3-yl}phenyl)ethan-1-one] | 7.18 | 4.65
7 | Cn1c(SCCCN2CCOC(c3ccc(C(F)(F)F)cc3)C2)nnc1C1CCCCC1 (stereo not shown) [Example 25, 4-{3-[(5-cyclohexyl-4-methyl-4H-1,2,4-triazol-3-yl)sulfanyl]propyl}-2-[4-(trifluoromethyl)phenyl]morpholine] | 7.36 | 5.05
8 | Cc1ncoc1-c1nnc(SCCCN2CCOC(c3ccc(C(F)(F)F)cc3F)C2)n1C (stereo not shown) [Example 34] | 6.71 | 4.96
9 | Cn1c(SCCCN2CCOC(c3ccc(C(F)(F)F)cc3)C2)nnc1-c1ccsc1 (stereo not shown) [Example 28] | 6.95 | 5.06
10 | Cn1c(SCCCN2CCOC(c3ccc(C(F)(F)F)cc3)C2)nnc1-c1ccc(C(N)=O)cn1 (stereo not shown) [Example 22, 6-{4-methyl-5-[(3-{2-[4-(trifluoromethyl)phenyl]morpholin-4-yl}propyl)sulfanyl]-4H-1,2,4-triazol-3-yl}pyridine-3-carboxamide] | 7 | 4.79
11 | Cn1cccc1-c1nnc(SCCCN2CCOC(c3ccc(C(F)(F)F)cc3)C2)n1C (stereo not shown) [Example 24] | 6.9 | 5.18
12 | Cn1c(SCCCN2CCOC(c3ccc(C(F)(F)F)cc3)C2)nnc1-c1cccc(C(N)=O)c1 (stereo not shown) [Example 23, 3-{4-methyl-5-[(3-{2-[4-(trifluoromethyl)phenyl]morpholin-4-yl}propyl)sulfanyl]-4H-1,2,4-triazol-3-yl}benzamide] | 6.53 | 4.82
13 | Cn1c(SCCCN2CCOC(c3ccc(C(F)(F)F)cc3)C2)nnc1-c1ccc(C(N)=O)cc1 (single isomer, unassigned) [Example 13, 4-[4-methyl-5-({3-[(2R or 2S)-2-[4-(trifluoromethyl)phenyl]morpholin-4-yl]propyl}sulfanyl)-4H-1,2,4-triazol-3-yl]benzamide] | 7.94 | 4.86
14 | Cn1c(SCCCN2CCOC(c3ccc(C(F)(F)F)cc3)C2)nnc1-c1ccc(S(N)(=O)=O)cc1 (stereo not shown) [Example 33, 4-{4-methyl-5-[(3-{2-[4-(trifluoromethyl)phenyl]morpholine-4-yl}propyl)sulfanyl]-4H-1,2,4-triazol-3-yl}benzene-1-sulfonamide] | 6.87 | <4.5
15 | Cn1c(SCCCN2CCOC(c3ccc(C(F)(F)F)cc3)C2)nnc1-c1ccc(C#N)cc1 (stereo not shown) [Example 31, 4-{4-methyl-5-[(3-{2-[4-(trifluoromethyl)phenyl]morpholin-4-yl}propyl)sulfanyl]-4H-1,2,4-triazol-3-yl}benzonitrile] | 6.97 | 4.95
16 | Cc1ncoc1-c1nnc(SCCCN2CCOC(c3ccc(Br)cc3)C2)n1C (stereo not shown) [Example 38, 2-(4-bromophenyl)-4-(3-{[4-methyl-5-(4-methyl-1,3-oxazol-5-yl)-4H-1,2,4-triazol-3-yl]sulfanyl}propyl)morpholine] | 6.72 | –
17 | Cn1c(SCCCN2CCOC(c3ccc(C(F)(F)F)cc3)C2)nnc1-c1ccc(-c2nnco2)cc1 (stereo not shown) [Example 29, 4-[3-({4-methyl-5-[4-(1,3,4-oxadiazol-2-yl)phenyl]-4H-1,2,4-triazol-3-yl}sulfanyl)propyl]-2-[4-(trifluoromethyl)phenyl]morpholine] | 7.79 | 4.91
18 | Cn1c(SCCCN2CCOC(c3ccc(C(F)(F)F)cc3F)C2)nnc1-c1ccc(C(N)=O)cc1 (stereo not shown) [Example 35] | 7.06 | –
19 | Cn1c(SCCCN2CCOC(c3ccc(C(F)(F)F)cc3)C2)nnc1-c1ccc(C(N)=O)cc1 (stereo not shown) [Example 11, 4-{4-methyl-5-[(3-{2-[4-(trifluoromethyl)phenyl]-morpholin-4-yl}propyl)sulfanyl]-4H-1,2,4-triazol-3-yl}benzamide] | 7.46 | 4.96
20 | Cn1nccc1-c1nnc(SCCCN2CCOC(c3ccc(C(F)(F)F)cc3)C2)n1C (stereo not shown) [Example 27, 4-(3-{[4-methyl-5-(1-methyl-1H-pyrazol-5-yl)-4H-1,2,4-triazol-3-yl]sulfanyl}propyl)-2-[4-(trifluoromethyl)phenyl]morpholine] | 6.16 | <5
21 | Cn1c(SCCCN2CCOC(c3ccc(C(F)(F)F)cc3)C2)nnc1-c1ccc(-c2ncco2)cc1 (single isomer, unassigned) [Example 15, (2S or 2R)-4-[3-({4-methyl-5-[4-(1,3-oxazol-2-yl)phenyl]-4H-1,2,4-triazol-3-yl}sulfanyl)propyl]-2-[4-(trifluoromethyl)phenyl]morpholine] | 6.36 | 4.81
22 | Cn1c(SCCCN2CCOC(c3ccc(C(F)(F)F)cc3)C2)nnc1-c1ccc(-n2cnnc2)cc1 (stereo not shown) [Example 21, 4-[3-({4-methyl-5-[4-(4H-1,2,4-triazol-4-yl)phenyl]-4H-1,2,4-triazol-3-yl}sulfanyl)propyl]-2-[4-(trifluoromethyl)phenyl]morpholine] | 6.9 | 5.04
23 | Cn1c(SCCCN2CCOC(c3ccc(C(F)(F)F)cc3)C2)nnc1-c1ccc(-c2ncco2)cc1 (single isomer, unassigned) [Example 16, (2R or 2S)-4-[3-({4-methyl-5-[4-(1,3-oxazol-2-yl)phenyl]-4H-1,2,4-triazol-3-yl}sulfanyl)propyl]-2-[4-(trifluoromethyl)phenyl]morpholine] | 8.23 | 5.28
24 | Cc1nc(-c2ccc(-c3nnc(SCCCN4CCOC(c5ccc(C(F)(F)F)cc5)C4)n3C)cc2)no1 (stereo not shown) [Example 30, 4-[3-({4-methyl-5-[4-(5-methyl-1,2,4-oxadiazol-3-yl)phenyl]-4H-1,2,4-triazol-3-yl}sulfanyl)propyl]-2-[4-(trifluoromethyl)phenyl]morpholine] | 7.63 | <5
